Laboratory results from ChEMBL document CHEMBL1147878, “Synthesis and in vitro antimicrobial activity of new 2-[p-substituted-benzyl]-5-[substituted-carbonylamino]benzoxazoles” (2007).
Values after ≈ are worked out from the molar mass of the structure shown.

Tests used:
Type in all cases: functional
Staphylococcus aureus = assay: Antibacterial activity against Staphylococcus aureus ATCC 25923 after 24 hrs by serial dilution method
Bacillus subtilis = assay: Antibacterial activity against Bacillus subtilis ATCC 6633 after 24 hrs by serial dilution method
Escherichia coli = assay: Antibacterial activity against Escherichia coli ATCC 23556 after 24 hrs by serial dilution method
Pseudomonas aeruginosa = assay: Antibacterial activity against Pseudomonas aeruginosa ATCC 10145 after 24 hrs by serial dilution method
Candida albicans = assay: Antifungal activity against Candida albicans after 48 hrs by serial dilution method
Pichia kudriavzevii = assay: Antifungal activity against Candida krusei ATCC 6258 after 48 hrs by serial dilution method; conditions: ATCC 6258, 48 h
Nakaseomyces glabratus = assay: Antifungal activity against Candida glabrata after 48 hrs by serial dilution method

## Cc1ccc(C(=O)Nc2ccc3oc(Cc4ccccc4)nc3c2)cc1C
Staphylococcus aureus; ATCC 25923, 24 h
  MIC: 50 µg/mL (≈ 140 µM)
Bacillus subtilis; ATCC 6633, 24 h
  MIC: 50 µg/mL (≈ 140 µM)
Escherichia coli; ATCC 23556, 24 h
  MIC: 50 µg/mL (≈ 140 µM)
Pseudomonas aeruginosa; ATCC 10145, 24 h
  MIC: 25 µg/mL (≈ 70.1 µM)
Candida albicans
  MIC: 25 µg/mL (≈ 70.1 µM)
Pichia kudriavzevii
  MIC: 50 µg/mL (≈ 140 µM)
Nakaseomyces glabratus
  MIC: 50 µg/mL (≈ 140 µM)

## CC1(C)S[C@@H]2[C@H](NC(=O)[C@H](N)c3ccc(O)cc3)C(=O)N2[C@H]1C(=O)O [AMOXICILLIN]
Staphylococcus aureus; ATCC 25923, 24 h
  MIC: 1.56 µg/mL (≈ 4.27 µM)
Bacillus subtilis; ATCC 6633, 24 h
  MIC: 1.56 µg/mL (≈ 4.27 µM)
Escherichia coli; ATCC 23556, 24 h
  MIC: 3.12 µg/mL (≈ 8.54 µM)
Pseudomonas aeruginosa; ATCC 10145, 24 h
  MIC: > 200 µg/mL

## O=C(Nc1ccc2oc(Cc3ccccc3)nc2c1)c1ccc(Cl)c([N+](=O)[O-])c1
Staphylococcus aureus; ATCC 25923, 24 h
  MIC: 50 µg/mL (≈ 123 µM)
Bacillus subtilis; ATCC 6633, 24 h
  MIC: 25 µg/mL (≈ 61.3 µM)
Escherichia coli; ATCC 23556, 24 h
  MIC: 50 µg/mL (≈ 123 µM)
Pseudomonas aeruginosa; ATCC 10145, 24 h
  MIC: 25 µg/mL (≈ 61.3 µM)
Candida albicans
  MIC: 12.5 µg/mL (≈ 30.7 µM)
Pichia kudriavzevii
  MIC: 12.5 µg/mL (≈ 30.7 µM)
Nakaseomyces glabratus
  MIC: 12.5 µg/mL (≈ 30.7 µM)

## Cc1ccc(C(=O)Nc2ccc3oc(Cc4ccc(Cl)cc4)nc3c2)cc1C
Staphylococcus aureus; ATCC 25923, 24 h
  MIC: 12.5 µg/mL (≈ 32 µM)
Bacillus subtilis; ATCC 6633, 24 h
  MIC: 25 µg/mL (≈ 64 µM)
Escherichia coli; ATCC 23556, 24 h
  MIC: 50 µg/mL (≈ 128 µM)
Pseudomonas aeruginosa; ATCC 10145, 24 h
  MIC: 50 µg/mL (≈ 128 µM)
Candida albicans
  MIC: 100 µg/mL (≈ 256 µM)
Pichia kudriavzevii
  MIC: 12.5 µg/mL (≈ 32 µM)
Nakaseomyces glabratus
  MIC: 50 µg/mL (≈ 128 µM)

## O=C(Cc1ccccc1)Nc1ccc2oc(Cc3ccc(Cl)cc3)nc2c1
Staphylococcus aureus; ATCC 25923, 24 h
  MIC: 50 µg/mL (≈ 133 µM)
Bacillus subtilis; ATCC 6633, 24 h
  MIC: 25 µg/mL (≈ 66.3 µM)
Escherichia coli; ATCC 23556, 24 h
  MIC: 50 µg/mL (≈ 133 µM)
Pseudomonas aeruginosa; ATCC 10145, 24 h
  MIC: 25 µg/mL (≈ 66.3 µM)
Candida albicans
  MIC: 25 µg/mL (≈ 66.3 µM)
Pichia kudriavzevii
  MIC: 25 µg/mL (≈ 66.3 µM)
Nakaseomyces glabratus
  MIC: 25 µg/mL (≈ 66.3 µM)

## CC(C)(C)c1ccc(C(=O)Nc2ccc3oc(Cc4ccccc4)nc3c2)cc1
Staphylococcus aureus; ATCC 25923, 24 h
  MIC: 200 µg/mL (≈ 520 µM)
Bacillus subtilis; ATCC 6633, 24 h
  MIC: 50 µg/mL (≈ 130 µM)
Escherichia coli; ATCC 23556, 24 h
  MIC: 25 µg/mL (≈ 65 µM)
Pseudomonas aeruginosa; ATCC 10145, 24 h
  MIC: 25 µg/mL (≈ 65 µM)
Candida albicans
  MIC: 50 µg/mL (≈ 130 µM)
Pichia kudriavzevii
  MIC: 25 µg/mL (≈ 65 µM)
Nakaseomyces glabratus
  MIC: 25 µg/mL (≈ 65 µM)

## CC(C)(C)c1ccc(C(=O)Nc2ccc3oc(Cc4ccc(Cl)cc4)nc3c2)cc1
Staphylococcus aureus; ATCC 25923, 24 h
  MIC: 25 µg/mL (≈ 59.7 µM)
Bacillus subtilis; ATCC 6633, 24 h
  MIC: 50 µg/mL (≈ 119 µM)
Escherichia coli; ATCC 23556, 24 h
  MIC: 50 µg/mL (≈ 119 µM)
Pseudomonas aeruginosa; ATCC 10145, 24 h
  MIC: 50 µg/mL (≈ 119 µM)
Candida albicans
  MIC: 50 µg/mL (≈ 119 µM)
Pichia kudriavzevii
  MIC: 50 µg/mL (≈ 119 µM)
Nakaseomyces glabratus
  MIC: 50 µg/mL (≈ 119 µM)

## Cc1ccc(CC(=O)Nc2ccc3oc(Cc4ccc(Cl)cc4)nc3c2)cc1
Staphylococcus aureus; ATCC 25923, 24 h
  MIC: 100 µg/mL (≈ 256 µM)
Bacillus subtilis; ATCC 6633, 24 h
  MIC: 25 µg/mL (≈ 64 µM)
Escherichia coli; ATCC 23556, 24 h
  MIC: 50 µg/mL (≈ 128 µM)
Pseudomonas aeruginosa; ATCC 10145, 24 h
  MIC: 25 µg/mL (≈ 64 µM)
Candida albicans
  MIC: 12.5 µg/mL (≈ 32 µM)
Pichia kudriavzevii
  MIC: 12.5 µg/mL (≈ 32 µM)
Nakaseomyces glabratus
  MIC: 12.5 µg/mL (≈ 32 µM)

## O=C(Nc1ccc2oc(Cc3ccccc3)nc2c1)c1ccc(Br)cc1
Staphylococcus aureus; ATCC 25923, 24 h
  MIC: 50 µg/mL (≈ 123 µM)
Bacillus subtilis; ATCC 6633, 24 h
  MIC: 50 µg/mL (≈ 123 µM)
Escherichia coli; ATCC 23556, 24 h
  MIC: 50 µg/mL (≈ 123 µM)
Pseudomonas aeruginosa; ATCC 10145, 24 h
  MIC: 25 µg/mL (≈ 61.4 µM)
Candida albicans
  MIC: 25 µg/mL (≈ 61.4 µM)
Pichia kudriavzevii
  MIC: 25 µg/mL (≈ 61.4 µM)
Nakaseomyces glabratus
  MIC: 25 µg/mL (≈ 61.4 µM)

## Clc1cc(Cl)c(OCC#CI)cc1Cl [HALOPROGIN]
Candida albicans
  MIC: 3.12 µg/mL (≈ 8.63 µM)

## O=C(CSc1ccccc1)Nc1ccc2oc(Cc3ccccc3)nc2c1
Staphylococcus aureus; ATCC 25923, 24 h
  MIC: 100 µg/mL (≈ 267 µM)
Bacillus subtilis; ATCC 6633, 24 h
  MIC: 50 µg/mL (≈ 134 µM)
Escherichia coli; ATCC 23556, 24 h
  MIC: 50 µg/mL (≈ 134 µM)
Pseudomonas aeruginosa; ATCC 10145, 24 h
  MIC: 25 µg/mL (≈ 66.8 µM)
Candida albicans
  MIC: 25 µg/mL (≈ 66.8 µM)
Pichia kudriavzevii
  MIC: 25 µg/mL (≈ 66.8 µM)
Nakaseomyces glabratus
  MIC: 25 µg/mL (≈ 66.8 µM)

## Cc1ccc(C)c(C(=O)Nc2ccc3oc(Cc4ccc(Cl)cc4)nc3c2)c1
Staphylococcus aureus; ATCC 25923, 24 h
  MIC: 50 µg/mL (≈ 128 µM)
Bacillus subtilis; ATCC 6633, 24 h
  MIC: 12.5 µg/mL (≈ 32 µM)
Escherichia coli; ATCC 23556, 24 h
  MIC: 12.5 µg/mL (≈ 32 µM)
Pseudomonas aeruginosa; ATCC 10145, 24 h
  MIC: 50 µg/mL (≈ 128 µM)
Candida albicans
  MIC: 6.25 µg/mL (≈ 16 µM)
Pichia kudriavzevii
  MIC: 12.5 µg/mL (≈ 32 µM)
Nakaseomyces glabratus
  MIC: 25 µg/mL (≈ 64 µM)

## O=C(Cc1ccc([N+](=O)[O-])cc1)Nc1ccc2oc(Cc3ccc(Cl)cc3)nc2c1
Staphylococcus aureus; ATCC 25923, 24 h
  MIC: 50 µg/mL (≈ 119 µM)
Bacillus subtilis; ATCC 6633, 24 h
  MIC: 50 µg/mL (≈ 119 µM)
Escherichia coli; ATCC 23556, 24 h
  MIC: 50 µg/mL (≈ 119 µM)
Pseudomonas aeruginosa; ATCC 10145, 24 h
  MIC: 25 µg/mL (≈ 59.3 µM)
Candida albicans
  MIC: 12.5 µg/mL (≈ 29.6 µM)
Pichia kudriavzevii
  MIC: 25 µg/mL (≈ 59.3 µM)
Nakaseomyces glabratus
  MIC: 25 µg/mL (≈ 59.3 µM)

## O=C(Cc1ccc(F)cc1)Nc1ccc2oc(Cc3ccccc3)nc2c1
Staphylococcus aureus; ATCC 25923, 24 h
  MIC: 50 µg/mL (≈ 139 µM)
Bacillus subtilis; ATCC 6633, 24 h
  MIC: 25 µg/mL (≈ 69.4 µM)
Escherichia coli; ATCC 23556, 24 h
  MIC: 25 µg/mL (≈ 69.4 µM)
Pseudomonas aeruginosa; ATCC 10145, 24 h
  MIC: 25 µg/mL (≈ 69.4 µM)
Candida albicans
  MIC: 50 µg/mL (≈ 139 µM)
Pichia kudriavzevii
  MIC: 12.5 µg/mL (≈ 34.7 µM)
Nakaseomyces glabratus
  MIC: 12.5 µg/mL (≈ 34.7 µM)

## O=C(Nc1ccc2oc(Cc3ccc(Cl)cc3)nc2c1)c1ccc([N+](=O)[O-])cc1
Staphylococcus aureus; ATCC 25923, 24 h
  MIC: 100 µg/mL (≈ 245 µM)
Bacillus subtilis; ATCC 6633, 24 h
  MIC: 50 µg/mL (≈ 123 µM)
Escherichia coli; ATCC 23556, 24 h
  MIC: 25 µg/mL (≈ 61.3 µM)
Pseudomonas aeruginosa; ATCC 10145, 24 h
  MIC: 25 µg/mL (≈ 61.3 µM)
Candida albicans
  MIC: 50 µg/mL (≈ 123 µM)
Pichia kudriavzevii
  MIC: 25 µg/mL (≈ 61.3 µM)
Nakaseomyces glabratus
  MIC: 25 µg/mL (≈ 61.3 µM)

## CN[C@@H]1[C@H](O[C@H]2[C@H](O[C@H]3[C@H](O)[C@@H](O)[C@H](N=C(N)N)[C@@H](O)[C@@H]3N=C(N)N)O[C@@H](C)[C@]2(O)C=O)O[C@@H](CO)[C@H](O)[C@H]1O (stereo in doubt) [STREPTOMYCIN]
Staphylococcus aureus; ATCC 25923, 24 h
  MIC: 3.12 µg/mL (≈ 5.36 µM)
Bacillus subtilis; ATCC 6633, 24 h
  MIC: 50 µg/mL (≈ 86 µM)
Escherichia coli; ATCC 23556, 24 h
  MIC: 1.56 µg/mL (≈ 2.68 µM)
Pseudomonas aeruginosa; ATCC 10145, 24 h
  MIC: 100 µg/mL (≈ 172 µM)
Nakaseomyces glabratus
  MIC: 13 µg/mL (≈ 22.4 µM)

## O=C(Nc1ccc2oc(Cc3ccccc3)nc2c1)c1ccc(F)cc1
Staphylococcus aureus; ATCC 25923, 24 h
  MIC: 50 µg/mL (≈ 144 µM)
Bacillus subtilis; ATCC 6633, 24 h
  MIC: 25 µg/mL (≈ 72.2 µM)
Escherichia coli; ATCC 23556, 24 h
  MIC: 50 µg/mL (≈ 144 µM)
Pseudomonas aeruginosa; ATCC 10145, 24 h
  MIC: 25 µg/mL (≈ 72.2 µM)
Candida albicans
  MIC: 12.5 µg/mL (≈ 36.1 µM)
Pichia kudriavzevii
  MIC: 50 µg/mL (≈ 144 µM)
Nakaseomyces glabratus
  MIC: 25 µg/mL (≈ 72.2 µM)

## GENTAMICIN
Staphylococcus aureus
  MIC: 3.12 µg/mL
Bacillus subtilis
  MIC: 1.56 µg/mL
Escherichia coli
  MIC: 12.5 µg/mL
Pseudomonas aeruginosa
  MIC: 12.5 µg/mL

## O=C(Cc1ccc(Cl)cc1)Nc1ccc2oc(Cc3ccc(Cl)cc3)nc2c1
Staphylococcus aureus; ATCC 25923, 24 h
  MIC: 50 µg/mL (≈ 122 µM)
Bacillus subtilis; ATCC 6633, 24 h
  MIC: 25 µg/mL (≈ 60.8 µM)
Escherichia coli; ATCC 23556, 24 h
  MIC: 50 µg/mL (≈ 122 µM)
Pseudomonas aeruginosa; ATCC 10145, 24 h
  MIC: 25 µg/mL (≈ 60.8 µM)
Candida albicans
  MIC: 50 µg/mL (≈ 122 µM)
Pichia kudriavzevii
  MIC: 6.25 µg/mL (≈ 15.2 µM)
Nakaseomyces glabratus
  MIC: 12.5 µg/mL (≈ 30.4 µM)

## Clc1ccc(COC(Cn2ccnc2)c2ccc(Cl)cc2Cl)c(Cl)c1 (centres undefined) [MICONAZOLE]
Candida albicans
  MIC: 3.12 µg/mL (≈ 7.5 µM)
Pichia kudriavzevii
  MIC: 1.56 µg/mL (≈ 3.75 µM)
Nakaseomyces glabratus
  MIC: 3.12 µg/mL (≈ 7.5 µM)

## O=C(Cc1ccc(Br)cc1)Nc1ccc2oc(Cc3ccccc3)nc2c1
Staphylococcus aureus; ATCC 25923, 24 h
  MIC: 25 µg/mL (≈ 59.3 µM)
Bacillus subtilis; ATCC 6633, 24 h
  MIC: 25 µg/mL (≈ 59.3 µM)
Escherichia coli; ATCC 23556, 24 h
  MIC: 25 µg/mL (≈ 59.3 µM)
Pseudomonas aeruginosa; ATCC 10145, 24 h
  MIC: 25 µg/mL (≈ 59.3 µM)
Candida albicans
  MIC: 25 µg/mL (≈ 59.3 µM)
Pichia kudriavzevii
  MIC: 12.5 µg/mL (≈ 29.7 µM)
Nakaseomyces glabratus
  MIC: 3.12 µg/mL (≈ 7.41 µM)
